Data reported in paper PMC11714206, “Massively Parallel Screening of Toll/Interleukin‐1 Receptor (TIR)‐Derived Peptides Reveals Multiple Toll‐Like Receptors (TLRs)‐Targeting Immunomodulatory Peptides” (Advanced Science, 2024).

Biological target: T1, MAL^TIR (Homo sapiens, UniProt P58753)
T1 construct: MAL (residues 79–221); 6xHis; made in house; host or cells: E. coli BL21 (DE3)
Assay: T‐Surf phage library (P8 and P3) selection against MAL^TIR, four rounds, NGS read counts
Type: binding
Conditions: for Population: 4th round of selection against MAL TIR, share of NGS reads; for P8_MAL Rank (after) / P8_MAL Rank (before): P8 library; for P3_MAL Rank (after) / P3_MAL Rank (before): P3 library
In short: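 Coat TIR domain 5 µg mL^−1 overnight; block 0.2% BSA/PBS 1 h, 4 °C; add phage library 1 h, RT; wash ×4 PBS/0.5% Tween‐20; elute 100 mM HCl, neutralize Tris; amplify in TG1, PEG‐precipitate. Repeat to round 4; barcode PCR, NovaSeq, count reads.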

[1] = P8_MAL pool: P8 T-Surf phage library
[2] = 4R selection against MAL, rank after grouping
[3] = 4R selection against MAL, rank before grouping
[4] = selection against MAL, rank after grouping
[5] = selection against MAL, rank before grouping
[6] = selection against MAL, rank by count after grouping
[7] = selection against MAL, rank by count before grouping
[8] = P8_MAL: rank by count after grouping
[9] = P8_MAL: rank by count before grouping
[10] = selection against MAL TIR, rank by count after grouping
[11] = selection against MAL TIR, rank by count before grouping
[12] = P3_MAL: rank by count after grouping
[13] = P3_MAL: rank by count before grouping
[14] = P3_MAL pool: P3 T-Surf phage library

T1 sequence (P58753 79-221): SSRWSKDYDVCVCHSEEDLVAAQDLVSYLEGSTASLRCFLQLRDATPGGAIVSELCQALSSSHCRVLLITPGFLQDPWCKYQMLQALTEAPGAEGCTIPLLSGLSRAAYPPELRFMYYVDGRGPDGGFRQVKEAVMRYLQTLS

RNFVAYLFQELANKGI
Population [1]: 0.00463%

AFFWPKLKSGLGNPTM
P8_MAL Rank (after) [2]: 635
P8_MAL Rank (before) [3]: 1717

WFYERLVSLMLRNTKV
P8_MAL Rank (after) [4]: 540
P8_MAL Rank (before) [5]: 1225

FDRFHIYFLHFLLFSR
P8_MAL Rank (after) [6]: 680
P8_MAL Rank (before) [7]: 1087

SSFREGLRRMLELTKI
P3_MAL Rank (after) [4]: 515
P3_MAL Rank (before) [5]: 3176

AFLYTFLINRTHPTNF
Population [1]: 0.0034%

PNLRTKVPNYPMLTKT
P3_MAL Rank (after) [2]: 640
P3_MAL Rank (before) [3]: 2680

AFFWQQLKSVPGNPTM
Rank (after) [8]: 154
Rank (before) [9]: 1718

LKVEGWRLALEKAGTL
P3_MAL Rank (after) [4]: 484
P3_MAL Rank (before) [5]: 2258

SSFREGLWRLLELRQK
P3_MAL Rank (after) [10]: 276
P3_MAL Rank (before) [11]: 3147

RNFVAYLFQALANIGI
Population [1]: 0.00371%

YTALTNIGFHTFLDND
P3_MAL Rank (after) [10]: 195
P3_MAL Rank (before) [11]: 1542

LKVESWRQALEKAGT
P3_MAL Rank (after) [4]: 549
P3_MAL Rank (before) [5]: 2274

QLIQQWMNCTCTSCI
Rank (after) [8]: 167
Rank (before) [9]: 2379

WFYERMVSLILRDTKL
Rank (after) [8]: 136
Rank (before) [9]: 1262

YAFTGHLHRYLCSVA
Rank (after) [12]: 144
Rank (before) [13]: 508

SSFREGRWRLPEVSKT
Rank (after) [12]: 448
Rank (before) [13]: 3119

AFFWEQLRTLLGQPTM
Rank (after) [8]: 127
Rank (before) [9]: 1699

TFLGHLYNALVQAGIP
Population [1]: 0.00463%

SSFREGLWRLLELSK
Rank (after) [12]: 131
Rank (before) [13]: 369

RLLNWKEARHQFHSWV
P3_MAL Rank (after) [10]: 243
P3_MAL Rank (before) [11]: 2479

PNLRTKLLNYLIRTKT
P3_MAL Rank (after) [10]: 280
P3_MAL Rank (before) [11]: 2694

LKWGDPYFWIKLRYTM
P3_MAL Rank (after) [10]: 233
P3_MAL Rank (before) [11]: 2212

VLHKFIGYLRDALQHR
Rank (after) [12]: 184
Rank (before) [13]: 1689

MFGGDTFHDFLDLISM
P8_MAL Rank (after) [10]: 192
P8_MAL Rank (before) [11]: 1005

MRLPAICNVIWCSVA
Rank (after) [12]: 388
Rank (before) [13]: 2938

AFLYTFLINLTHKPTF
P8_MAL Rank (after) [10]: 228
P8_MAL Rank (before) [11]: 1866

NQCTDALTAAVVLSGW
P3_MAL Rank (after) [4]: 528
P3_MAL Rank (before) [5]: 3330

NHWRNALTAAANLIGW
P8_MAL Rank (after) [10]: 248
P8_MAL Rank (before) [11]: 2657

KLIQGGCLYRLLKIEQ
Rank (after) [8]: 421
Rank (before) [9]: 2752

RGFLSHLSHPLQAKDP
P3_MAL Rank (after) [2]: 585
P3_MAL Rank (before) [3]: 2391

QLIQQWIELQLRQLHL
P8_MAL Rank (after) [2]: 584
P8_MAL Rank (before) [3]: 2356

DWFLSKLSQHILRHEK
P3_MAL Rank (after) [6]: 722
P3_MAL Rank (before) [7]: 1886

YAFTGPPHRYMVQRGV
Rank (after) [12]: 460
Rank (before) [13]: 1354

AFFLGTAAYRAGQTDD
P8_MAL Rank (after) [10]: 198
P8_MAL Rank (before) [11]: 802

LFFWGSLRQLLRNDDG
P8_MAL Rank (after) [10]: 260
P8_MAL Rank (before) [11]: 2058

DFLSHLIEAFSRMHIN
P8_MAL Rank (after) [4]: 504
P8_MAL Rank (before) [5]: 1972

LKAESWRQAPEKAGKL
P3_MAL Rank (after) [10]: 259
P3_MAL Rank (before) [11]: 2306

SSFLSHLFDALQRKQI
P3_MAL Rank (after) [10]: 218
P3_MAL Rank (before) [11]: 1020

PSEIRKQTGSLPKAFA
P3_MAL Rank (after) [2]: 579
P3_MAL Rank (before) [3]: 2665

RLLKWKDALHQFHSWV
Population [14]: 0.0132%

YLLLSVFQTIFARRTE
P8_MAL Rank (after) [10]: 238
P8_MAL Rank (before) [11]: 800

AFLCDQLSTLMDPPTF
P8_MAL Rank (after) [4]: 578
P8_MAL Rank (before) [5]: 1805

YFLHLLLFSRPETVYI
P8_MAL Rank (after) [2]: 615
P8_MAL Rank (before) [3]: 1508

AFFWAQLKSTLGETSF
P8_MAL Rank (after) [4]: 567
P8_MAL Rank (before) [5]: 1640

SFLHFLLFSRPDTEYI
Rank (after) [8]: 413
Rank (before) [9]: 1436

RNLLAYLRWAVANTVI
P8_MAL Rank (after) [4]: 541
P8_MAL Rank (before) [5]: 2312

TFLGHLYSALVHAGIH
Rank (after) [8]: 479
Rank (before) [9]: 2561

TFLGHLYNALVQAGIRAFL
P8_MAL Rank (after) [2]: 588
P8_MAL Rank (before) [3]: 2579

VGWFLHTLCQLILQKG
P3_MAL Rank (after) [2]: 632
P3_MAL Rank (before) [3]: 1630

YAFTGHLRRYLLRRSV
Rank (after) [12]: 439
Rank (before) [13]: 1372

YLKLGYPWCWDRRRFA
P3_MAL Rank (after) [2]: 583
P3_MAL Rank (before) [3]: 1500

DWIREQLRPALKKRLP
P3_MAL Rank (after) [4]: 520
P3_MAL Rank (before) [5]: 1989

AFFWAQLKQLLRSDGR
P8_MAL Rank (after) [2]: 629
P8_MAL Rank (before) [3]: 1610

LFFWESLKQLLRRWP
P8_MAL Rank (after) [4]: 563
P8_MAL Rank (before) [5]: 2097

AFFWEQLRTVLRTPTL
P8_MAL Rank (after) [2]: 613
P8_MAL Rank (before) [3]: 1676

RLLKWKEALTAAANLSGW
P3_MAL Rank (after) [2]: 642
P3_MAL Rank (before) [3]: 2524

AFFWPQLKSMLRNTTV
Rank (after) [8]: 418
Rank (before) [9]: 1716

KLFWEKLKLFLPSLSR
P8_MAL Rank (after) [2]: 657
P8_MAL Rank (before) [3]: 2687

SFYERLVRLILRDTTV
Rank (after) [8]: 189
Rank (before) [9]: 1444

AFLYSFLTNLTHPTEN
P8_MAL Rank (after) [4]: 494
P8_MAL Rank (before) [5]: 1818

SEFIQKIILWLNTKIV
P8_MAL Rank (after) [10]: 203
P8_MAL Rank (before) [11]: 2461

WFMMKFRTVLYHVNYV
Rank (after) [8]: 398
Rank (before) [9]: 1377

SFFWNKLRYHLPAPQH
P8_MAL Rank (after) [10]: 269
P8_MAL Rank (before) [11]: 2441

LFFWECLKKLLRRDGR
P8_MAL Rank (after) [2]: 601
P8_MAL Rank (before) [3]: 2071

AFFCAQQKSVLRNPTK
P8_MAL Rank (after) [4]: 516
P8_MAL Rank (before) [5]: 1725

TFLGHLYNALVQTGIP
Rank (after) [8]: 112
Rank (before) [9]: 2569

RGFLSHMRHPLQAKDH
P3_MAL Rank (after) [10]: 281
P3_MAL Rank (before) [11]: 2398

DPQDLQWFYERLVSLI
Rank (after) [8]: 447
Rank (before) [9]: 1990

AVLYTFLINLTHPTNF
Population [1]: 0.00402%

AFFWEHLRPLLGKQAM
P8_MAL Rank (after) [2]: 622
P8_MAL Rank (before) [3]: 1711

ELDFSHFWLFDGEAGGEP
P8_MAL Rank (after) [4]: 569
P8_MAL Rank (before) [5]: 2048

HLLDKLRSNGISPFID
Rank (after) [12]: 461
Rank (before) [13]: 2772

AFLWTQLKSLLRNTTM
P8_MAL Rank (after) [4]: 534
P8_MAL Rank (before) [5]: 1765

WFLFTVRSATYTMSPA
P8_MAL Rank (after) [10]: 220
P8_MAL Rank (before) [11]: 1338

WFYELLVSLLLRDTKV
P8_MAL Rank (after) [10]: 221
P8_MAL Rank (before) [11]: 1149

NAFTGHLHRYLVQRGV
Population [14]: 0.00488%

AFFLAQLKSEPTNPTM
P8_MAL Rank (after) [10]: 272
P8_MAL Rank (before) [11]: 1581

RLLKWKEEMHQFHSWV
P3_MAL Rank (after) [10]: 206
P3_MAL Rank (before) [11]: 2531

RNFVAYLLQALANKSI
Rank (after) [8]: 405
Rank (before) [9]: 2222

LNVESWRQALEKAGKL
Population [14]: 0.00338%

NQCRNALTAAANLSGW
Population [14]: 0.00376%
